# Read-outs that look alike come from different tables or passages of the source.
# Assays:
# Ba/F3 FLT3-ITD = Ba/F3 FLT3-ITD growth inhibition; assay type: cell-based; details: Ba/F3 FLT3-ITD cells
# Ba/F3 parental = Ba/F3 parental growth inhibition; assay type: cell-based; details: Mus musculus, BaF3; Ba/F3 parental cells
# ACK1 = molecular target: T1, ACK1 (Homo sapiens, UniProt Q07912); assay: Kinase screening, HotSpot assay (Reaction Biology); assay type: biochemical
# T1 construct: purchased Reaction Biology Corporation
# Protocol: (§1) Kinase screening was performed using a “HotSpot” assay platform method by Reaction Biology Corporation. The reaction buffer used herein contained 20 mM HEPES (pH 7.5), 10 mM MgCl2, 1 mM EGTA, 0.02% Brij35, 0.02 mg/mL BSA, 0.1 mM Na3VO4, 2 mM DTT and 1% DMSO. The required cofactors were added in accordance with the kinase reaction. Freshly made buffer and cofactors were added at a concentration of 20 μM during the selected enzyme reaction. A solution of the test compound in dimethylsulfoxide (DMSO) was added at a suitable concentration to this solution. In order to initiate reaction, […] (specific activity […]) was added and incubated at room temperature for 2 hours. The test compound was screened at a starting concentration of 20 μM in a 10-dose IC50 mode. IC50 of Staurosporine used as a control drug was obtained at a starting concentration of 20 μM in a 10-dose IC50 mode.
# JAK2 = molecular target: T2, JAK2 (Homo sapiens, UniProt O60674); assay: Kinase screening, HotSpot assay (Reaction Biology); assay type: biochemical
# T2 construct: purchased Reaction Biology Corporation
# Protocol: as §1
# ARK5/NUAK1 [1] = molecular target: T3, ARK5/NUAK1 (Homo sapiens, UniProt O60285); assay: Kinase screening, HotSpot assay (Reaction Biology); assay type: biochemical
# T3 construct: purchased Reaction Biology Corporation
# T3 sequence (O60285 1-661): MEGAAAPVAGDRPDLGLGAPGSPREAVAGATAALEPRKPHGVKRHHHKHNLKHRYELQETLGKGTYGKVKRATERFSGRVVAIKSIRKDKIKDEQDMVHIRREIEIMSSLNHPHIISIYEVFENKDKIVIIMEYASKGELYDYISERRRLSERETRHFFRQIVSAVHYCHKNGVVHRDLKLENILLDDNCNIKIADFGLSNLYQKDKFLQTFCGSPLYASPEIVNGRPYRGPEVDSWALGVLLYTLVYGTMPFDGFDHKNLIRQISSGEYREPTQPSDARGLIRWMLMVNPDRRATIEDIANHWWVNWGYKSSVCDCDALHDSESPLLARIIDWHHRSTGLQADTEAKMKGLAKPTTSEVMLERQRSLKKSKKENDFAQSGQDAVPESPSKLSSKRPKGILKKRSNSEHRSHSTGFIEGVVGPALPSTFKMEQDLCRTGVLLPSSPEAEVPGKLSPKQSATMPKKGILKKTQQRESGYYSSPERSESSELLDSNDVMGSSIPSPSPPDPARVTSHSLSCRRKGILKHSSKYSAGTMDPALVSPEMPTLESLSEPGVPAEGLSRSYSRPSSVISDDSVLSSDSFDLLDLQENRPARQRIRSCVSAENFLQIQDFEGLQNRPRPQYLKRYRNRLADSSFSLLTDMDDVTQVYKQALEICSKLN
# Protocol: as §1
# JAK2(V617F) = molecular target: T4, JAK2(V617F) (Homo sapiens, UniProt O60674, V617F); assay: Kinase screening, HotSpot assay (Reaction Biology); assay type: biochemical
# T4 construct: purchased Reaction Biology Corporation
# Protocol: as §1
# JAK1 = molecular target: T5, JAK1 (Homo sapiens, UniProt P23458); assay: Kinase screening, HotSpot assay (Reaction Biology); assay type: biochemical
# T5 construct: purchased Reaction Biology Corporation
# Protocol: as §1
# FLT3 = molecular target: T6, FLT3 (Homo sapiens, UniProt P36888); assay: Kinase screening, HotSpot assay (Reaction Biology); assay type: biochemical
# T6 construct: purchased Reaction Biology Corporation
# T6 sequence (P36888 27-993): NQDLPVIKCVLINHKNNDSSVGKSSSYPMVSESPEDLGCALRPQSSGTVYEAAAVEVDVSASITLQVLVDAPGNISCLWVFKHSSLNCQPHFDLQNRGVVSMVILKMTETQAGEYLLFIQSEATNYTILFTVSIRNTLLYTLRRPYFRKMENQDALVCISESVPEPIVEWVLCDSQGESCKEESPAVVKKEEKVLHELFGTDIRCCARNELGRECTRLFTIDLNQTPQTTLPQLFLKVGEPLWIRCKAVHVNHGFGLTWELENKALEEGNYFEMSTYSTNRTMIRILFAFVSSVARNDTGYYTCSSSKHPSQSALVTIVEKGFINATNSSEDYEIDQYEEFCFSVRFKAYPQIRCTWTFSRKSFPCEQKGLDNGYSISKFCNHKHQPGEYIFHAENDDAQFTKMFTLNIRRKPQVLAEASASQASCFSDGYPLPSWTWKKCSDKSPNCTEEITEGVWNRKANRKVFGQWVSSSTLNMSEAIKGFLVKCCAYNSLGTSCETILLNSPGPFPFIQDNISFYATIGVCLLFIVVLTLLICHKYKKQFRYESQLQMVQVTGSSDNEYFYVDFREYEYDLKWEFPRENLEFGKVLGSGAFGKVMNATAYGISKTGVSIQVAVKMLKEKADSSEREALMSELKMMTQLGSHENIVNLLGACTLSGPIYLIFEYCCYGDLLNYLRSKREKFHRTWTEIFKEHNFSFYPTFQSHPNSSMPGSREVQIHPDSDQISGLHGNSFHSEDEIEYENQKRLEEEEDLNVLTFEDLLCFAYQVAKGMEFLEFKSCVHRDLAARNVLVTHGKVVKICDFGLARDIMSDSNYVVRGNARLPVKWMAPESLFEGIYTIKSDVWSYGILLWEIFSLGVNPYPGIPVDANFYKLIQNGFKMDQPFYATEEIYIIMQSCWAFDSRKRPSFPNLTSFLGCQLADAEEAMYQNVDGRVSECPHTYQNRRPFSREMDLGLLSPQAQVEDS
# Protocol: Kinase screening was performed using a “HotSpot” assay platform method by Reaction Biology Corporation. The reaction buffer used herein contained 20 mM HEPES (pH 7.5), 10 mM MgCl2, 1 mM EGTA, 0.02% Brij35, 0.02 mg/mL BSA, 0.1 mM Na3VO4, 2 mM DTT and 1% DMSO. The required cofactors were added in accordance with the kinase reaction. Freshly made buffer and cofactors were added at a concentration of 20 μM during the selected enzyme reaction. A solution of the test compound in dimethylsulfoxide (DMSO) was added at a suitable concentration to this solution.
# CYP 2C19 = CYP 2C19 (Homo sapiens, UniProt P33261); assay: CYP450 assay (luminescence); assay type: in vitro ADME; details: control compound at 100 μM, read-out: inhibitory activity against human CYP 2C19
# Protocol: The resulting substance was reacted with NADPH for 20 minutes at 37° C. and a detection reagent was added to terminate the reaction. After stabilization at room temperature for 20 minutes, a luminescence signal was measured.
# CYP 1A2 = CYP 1A2 (Homo sapiens, UniProt P05177); assay: CYP450 assay (luminescence); assay type: in vitro ADME; details: compound at 10 μM
# Protocol: (§2) Compound 5 and a positive control stock solution were diluted with water to prepare a 40 μM working solution, and a solution containing an enzyme and a substrate was prepared using water and buffer. Compound 5/control/positive control and the solution were each dispensed on a 96-well and preincubated at 37° C. for 10 minutes. The resulting substance was reacted with NADPH for 20 minutes at 37° C. and a detection reagent was added to terminate the reaction. After stabilization at room temperature for 20 minutes, a luminescence signal was measured.
# AXL = molecular target: T7, AXL (Homo sapiens, UniProt P30530); assay: Kinase screening, HotSpot assay (Reaction Biology); assay type: biochemical
# T7 construct: purchased Reaction Biology Corporation
# Protocol: as §1
# AXL(R499C) = molecular target: T8, AXL(R499C) (Homo sapiens, UniProt P30530, R499C); assay: Kinase screening, HotSpot assay (Reaction Biology); assay type: biochemical
# T8 construct: purchased Reaction Biology Corporation
# Protocol: as §1
# LRRK2 = molecular target: T9, LRRK2 (Homo sapiens, UniProt Q5S007); assay: Kinase screening, HotSpot assay (Reaction Biology); assay type: biochemical
# T9 construct: purchased Reaction Biology Corporation
# Protocol: as §1
# RET = molecular target: T10, RET (Homo sapiens, UniProt P07949); assay: Kinase screening, HotSpot assay (Reaction Biology); assay type: biochemical
# T10 construct: purchased Reaction Biology Corporation
# Protocol: as §1
# TYRO3/SKY = molecular target: T11, TYRO3/SKY (Homo sapiens, UniProt Q06418); assay: Kinase screening, HotSpot assay (Reaction Biology); assay type: biochemical
# T11 construct: purchased Reaction Biology Corporation
# Protocol: as §1
# JAK3 = molecular target: T12, JAK3 (Homo sapiens, UniProt P52333); assay: Kinase screening, HotSpot assay (Reaction Biology); assay type: biochemical
# T12 construct: purchased Reaction Biology Corporation
# Protocol: as §1
# SIK2 = molecular target: T13, SIK2 (Homo sapiens, UniProt Q9H0K1); assay: Kinase screening, HotSpot assay (Reaction Biology); assay type: biochemical
# T13 construct: purchased Reaction Biology Corporation
# Protocol: as §1
# PKCmu/PRKD1 = molecular target: T14, PKCmu/PRKD1 (Homo sapiens, UniProt Q15139); assay: Kinase screening, HotSpot assay (Reaction Biology); assay type: biochemical
# T14 construct: purchased Reaction Biology Corporation
# Protocol: as §1
# c-MER = molecular target: T15, c-MER (Homo sapiens, UniProt Q12866); assay: Kinase screening, HotSpot assay (Reaction Biology); assay type: biochemical
# T15 construct: purchased Reaction Biology Corporation
# Protocol: as §1
# mLK1/MAP3K9 = molecular target: T16, mLK1/MAP3K9 (Homo sapiens, UniProt P80192); assay: Kinase screening, HotSpot assay (Reaction Biology); assay type: biochemical
# T16 construct: purchased Reaction Biology Corporation
# Protocol: as §1
# MV-4-11 cells = assay: MV-4-11 cell screening (viable cells by ATP luminescence); assay type: cell-based; details: Homo sapiens, MV4-11, 72 hours incubation, read-out: MV-4-11 cell line (IC50)
# Protocol: A control compound was a 1 mM Staurosporine solution in DMSO.
# 25 μL of culture media containing 2,000 MV-4-11 cells were added and incubated at 37° C. in the presence of 5% CO2 for 72 hours. Then, the culture solution was mixed in an orbital shaker for 2 minutes and incubated at room temperature for 15 minutes. […] IC50 values are measured using the GraphPad Prism 4 program in accordance with the sigmoidal dose-response equation.
# K-562 cell line = K-562 cell line activity; assay type: cell-based; details: Homo sapiens, K562
# CYP 3A4 = CYP 3A4 (Homo sapiens, UniProt P08684); assay: CYP450 assay (luminescence); assay type: in vitro ADME; details: compound at 10 μM, read-out: inhibitory activity against human CYP 3A4
# Protocol: as §2
# ARK5/NUAK1 [2] = molecular target: T3, ARK5/NUAK1; details: comparative values quoted in text, source not stated; read-out: ARK5/NUAK1 IC50 of comparative compounds; cited from earlier work
# T4 sequence (O60674 whole entry V617F): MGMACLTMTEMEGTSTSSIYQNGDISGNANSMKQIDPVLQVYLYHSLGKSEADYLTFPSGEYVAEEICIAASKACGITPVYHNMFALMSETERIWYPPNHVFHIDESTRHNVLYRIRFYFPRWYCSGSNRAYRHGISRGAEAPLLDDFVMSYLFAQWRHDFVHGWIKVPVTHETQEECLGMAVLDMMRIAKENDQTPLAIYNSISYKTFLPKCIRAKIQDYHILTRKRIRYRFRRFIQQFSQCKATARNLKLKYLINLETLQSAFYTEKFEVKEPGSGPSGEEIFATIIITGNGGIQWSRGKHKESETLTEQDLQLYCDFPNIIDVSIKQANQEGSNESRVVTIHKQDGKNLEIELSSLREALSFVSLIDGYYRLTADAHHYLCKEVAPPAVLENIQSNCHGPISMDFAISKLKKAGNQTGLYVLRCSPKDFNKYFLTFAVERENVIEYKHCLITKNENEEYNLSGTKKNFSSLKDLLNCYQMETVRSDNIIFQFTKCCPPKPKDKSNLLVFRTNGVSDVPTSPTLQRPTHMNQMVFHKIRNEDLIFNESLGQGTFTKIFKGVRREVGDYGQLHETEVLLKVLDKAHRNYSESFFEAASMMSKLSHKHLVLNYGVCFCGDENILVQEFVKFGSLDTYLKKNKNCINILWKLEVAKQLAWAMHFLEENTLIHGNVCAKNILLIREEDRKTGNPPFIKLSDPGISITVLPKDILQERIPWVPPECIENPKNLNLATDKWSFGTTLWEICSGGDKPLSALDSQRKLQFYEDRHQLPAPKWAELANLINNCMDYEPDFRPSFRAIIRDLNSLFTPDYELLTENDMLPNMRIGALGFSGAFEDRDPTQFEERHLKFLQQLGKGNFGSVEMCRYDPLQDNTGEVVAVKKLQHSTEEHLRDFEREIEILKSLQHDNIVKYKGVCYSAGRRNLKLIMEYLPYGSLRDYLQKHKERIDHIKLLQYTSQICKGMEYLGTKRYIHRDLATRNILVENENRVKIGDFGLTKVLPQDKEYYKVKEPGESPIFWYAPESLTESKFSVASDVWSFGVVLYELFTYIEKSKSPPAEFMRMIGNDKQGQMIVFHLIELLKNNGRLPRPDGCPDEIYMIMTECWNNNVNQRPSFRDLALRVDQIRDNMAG
# T1 sequence (Q07912 whole entry): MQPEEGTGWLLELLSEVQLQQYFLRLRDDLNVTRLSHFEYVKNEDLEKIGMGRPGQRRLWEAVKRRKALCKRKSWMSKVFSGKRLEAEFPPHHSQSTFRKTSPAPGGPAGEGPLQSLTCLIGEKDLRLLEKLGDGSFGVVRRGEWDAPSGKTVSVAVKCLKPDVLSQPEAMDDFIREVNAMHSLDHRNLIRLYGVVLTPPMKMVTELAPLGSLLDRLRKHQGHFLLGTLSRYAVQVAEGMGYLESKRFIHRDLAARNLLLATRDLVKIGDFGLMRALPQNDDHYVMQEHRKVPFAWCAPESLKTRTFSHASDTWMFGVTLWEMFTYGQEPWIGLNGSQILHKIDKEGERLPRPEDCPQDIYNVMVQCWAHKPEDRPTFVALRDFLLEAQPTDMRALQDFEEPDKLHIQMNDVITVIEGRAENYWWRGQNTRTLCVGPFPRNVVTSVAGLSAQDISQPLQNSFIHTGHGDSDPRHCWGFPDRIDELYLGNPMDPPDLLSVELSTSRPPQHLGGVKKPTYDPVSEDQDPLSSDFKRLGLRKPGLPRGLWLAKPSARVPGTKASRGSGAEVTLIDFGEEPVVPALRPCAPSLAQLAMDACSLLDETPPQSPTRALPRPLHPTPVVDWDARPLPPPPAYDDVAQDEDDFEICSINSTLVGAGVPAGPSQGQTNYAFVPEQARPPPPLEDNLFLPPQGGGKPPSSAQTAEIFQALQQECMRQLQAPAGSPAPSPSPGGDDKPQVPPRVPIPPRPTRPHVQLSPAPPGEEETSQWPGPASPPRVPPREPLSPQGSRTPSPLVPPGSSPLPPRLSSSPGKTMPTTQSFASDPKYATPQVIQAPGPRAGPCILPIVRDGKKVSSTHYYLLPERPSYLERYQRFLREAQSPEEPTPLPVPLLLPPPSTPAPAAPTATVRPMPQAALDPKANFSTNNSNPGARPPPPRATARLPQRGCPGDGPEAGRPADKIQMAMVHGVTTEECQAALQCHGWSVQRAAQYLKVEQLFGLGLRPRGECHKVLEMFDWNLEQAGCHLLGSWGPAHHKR
# T5 sequence (P23458 whole entry): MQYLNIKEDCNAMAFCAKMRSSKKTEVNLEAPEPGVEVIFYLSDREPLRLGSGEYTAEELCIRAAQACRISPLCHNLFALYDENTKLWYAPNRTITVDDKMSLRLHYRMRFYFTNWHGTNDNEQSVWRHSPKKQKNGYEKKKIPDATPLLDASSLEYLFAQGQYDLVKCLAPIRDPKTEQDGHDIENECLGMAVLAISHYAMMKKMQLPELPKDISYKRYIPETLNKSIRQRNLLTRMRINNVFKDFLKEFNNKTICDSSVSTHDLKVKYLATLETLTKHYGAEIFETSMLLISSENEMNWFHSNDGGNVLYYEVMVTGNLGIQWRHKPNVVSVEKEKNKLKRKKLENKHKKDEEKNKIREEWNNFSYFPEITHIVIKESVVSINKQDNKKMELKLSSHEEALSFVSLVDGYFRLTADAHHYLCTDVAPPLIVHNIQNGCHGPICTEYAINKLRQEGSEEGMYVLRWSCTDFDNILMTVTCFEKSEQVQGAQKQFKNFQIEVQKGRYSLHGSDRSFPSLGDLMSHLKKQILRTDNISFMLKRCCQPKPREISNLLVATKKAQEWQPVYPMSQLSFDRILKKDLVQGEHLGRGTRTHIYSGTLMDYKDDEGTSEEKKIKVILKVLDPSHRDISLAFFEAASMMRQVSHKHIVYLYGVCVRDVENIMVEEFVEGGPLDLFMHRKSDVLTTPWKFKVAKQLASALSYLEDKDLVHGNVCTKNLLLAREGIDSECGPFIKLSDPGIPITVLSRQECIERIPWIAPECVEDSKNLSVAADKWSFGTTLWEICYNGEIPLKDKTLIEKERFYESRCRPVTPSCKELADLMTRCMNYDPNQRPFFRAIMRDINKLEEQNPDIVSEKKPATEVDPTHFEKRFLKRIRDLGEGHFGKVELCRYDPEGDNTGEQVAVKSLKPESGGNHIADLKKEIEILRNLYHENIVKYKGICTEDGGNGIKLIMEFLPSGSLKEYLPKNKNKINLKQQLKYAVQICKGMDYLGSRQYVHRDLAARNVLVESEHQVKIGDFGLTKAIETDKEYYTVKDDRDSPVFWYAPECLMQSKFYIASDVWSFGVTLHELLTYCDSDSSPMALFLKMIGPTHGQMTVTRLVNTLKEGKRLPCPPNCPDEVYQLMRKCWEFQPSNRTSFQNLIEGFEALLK
# T2 sequence (O60674 whole entry): as the sequence (O60674 whole entry V617F) above, with F617V counted along it
# T14 sequence (Q15139 whole entry): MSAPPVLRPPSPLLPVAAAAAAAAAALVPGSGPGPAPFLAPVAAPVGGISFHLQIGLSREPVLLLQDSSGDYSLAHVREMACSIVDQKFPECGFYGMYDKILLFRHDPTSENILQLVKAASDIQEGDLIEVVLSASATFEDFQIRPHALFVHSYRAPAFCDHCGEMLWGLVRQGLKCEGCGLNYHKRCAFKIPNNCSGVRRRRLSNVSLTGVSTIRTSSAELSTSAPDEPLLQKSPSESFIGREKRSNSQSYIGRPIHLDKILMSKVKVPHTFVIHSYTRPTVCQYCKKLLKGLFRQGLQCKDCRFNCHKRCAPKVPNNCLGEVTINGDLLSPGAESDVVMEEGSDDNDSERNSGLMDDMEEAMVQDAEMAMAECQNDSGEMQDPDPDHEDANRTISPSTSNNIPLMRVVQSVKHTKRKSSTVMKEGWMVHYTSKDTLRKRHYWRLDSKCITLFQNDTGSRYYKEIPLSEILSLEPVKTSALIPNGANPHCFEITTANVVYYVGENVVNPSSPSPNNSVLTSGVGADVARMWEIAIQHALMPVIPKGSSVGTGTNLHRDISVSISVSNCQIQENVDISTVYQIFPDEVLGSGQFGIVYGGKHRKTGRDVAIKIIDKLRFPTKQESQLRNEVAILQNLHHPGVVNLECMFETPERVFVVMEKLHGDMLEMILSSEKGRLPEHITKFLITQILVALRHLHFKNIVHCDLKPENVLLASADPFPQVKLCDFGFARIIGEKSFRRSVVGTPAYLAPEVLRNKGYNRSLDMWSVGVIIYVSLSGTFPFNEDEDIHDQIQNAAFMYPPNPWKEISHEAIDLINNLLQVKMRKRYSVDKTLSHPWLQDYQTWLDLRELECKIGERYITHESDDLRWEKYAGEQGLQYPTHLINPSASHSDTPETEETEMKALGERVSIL
# Sequence of CYP 1A2 (P05177 whole entry): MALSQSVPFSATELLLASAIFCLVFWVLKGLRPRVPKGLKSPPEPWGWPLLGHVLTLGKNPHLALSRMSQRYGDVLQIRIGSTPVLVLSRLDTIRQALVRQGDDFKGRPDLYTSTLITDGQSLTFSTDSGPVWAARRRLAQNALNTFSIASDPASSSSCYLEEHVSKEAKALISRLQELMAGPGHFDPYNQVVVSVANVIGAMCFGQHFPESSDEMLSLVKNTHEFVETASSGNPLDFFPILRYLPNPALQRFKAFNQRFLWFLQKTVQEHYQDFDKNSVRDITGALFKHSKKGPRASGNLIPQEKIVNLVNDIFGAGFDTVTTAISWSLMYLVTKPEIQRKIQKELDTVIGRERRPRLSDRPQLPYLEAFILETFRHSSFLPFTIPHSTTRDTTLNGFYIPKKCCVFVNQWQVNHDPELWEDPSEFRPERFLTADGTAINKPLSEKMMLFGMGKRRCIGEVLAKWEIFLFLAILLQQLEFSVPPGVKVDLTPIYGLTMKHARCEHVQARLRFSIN
compound,measurement,setting,value
"FC(F)(F)c1cnc(Nc2ccc(OCCN3CCCC3)cc2)nc1NCc1ccco1 [Compound 21, 4-(furan-2-yl) methylamino-5-trifluoromethyl-2-[4-{2-(pyrrolidin-1-yl)ethoxy}phenylamino]pyrimidine]",GI50,Ba/F3 FLT3-ITD,0.558 µM
same,GI50,Ba/F3 parental,8.06 µM
"Fc1cnc(Nc2ccc(OCCN3CCCC3)cc2)nc1NCc1ccco1 [Compound 20, 4-(furan-2-yl) methylamino-5-fluoro-2-[4-{2-(pyrrolidin-1-yl)ethoxy}phenylamino]pyrimidine]",IC50,ACK1,0.101 µM
same,IC50,JAK2,0.0991 µM
same,IC50,ARK5/NUAK1 [1],0.0523 µM
same,IC50,JAK2(V617F),0.238 µM
same,IC50,JAK1,0.177 µM
same,GI50,Ba/F3 FLT3-ITD,0.178 µM
same,IC50,FLT3,0.022 µM
same,GI50,Ba/F3 parental,6.67 µM
"CN(C)CCC=C1c2ccccc2CCc2ccccc21 [amitriptyline, reference compound]","inhibition at 20 min, 100 µM",CYP 2C19,88%
αα-naphthoflavone [reference compound],inhibitory activity against human CYP 1A2,CYP 1A2,97.7
"Cc1cnc(Nc2ccc(OCCN3CCCC3)cc2)nc1NCc1ccco1 [Compound 1, 4-(furan-2-yl)methylamino-5-methyl-2-[4-{2-(pyrrolidin-1-yl)ethoxy}phenylamino]pyrimidine]",IC50,ACK1,0.0388 µM
same,IC50,AXL,0.443 µM
same,IC50,AXL(R499C),0.207 µM
same,IC50,LRRK2,0.113 µM
same,IC50,RET,0.488 µM
same,IC50,JAK2,0.0501 µM
same,IC50,TYRO3/SKY,10.7 µM
same,IC50,ARK5/NUAK1 [1],0.0059 µM
same,IC50,JAK3,0.207 µM
same,IC50,JAK2(V617F),0.0952 µM
same,IC50,JAK1,0.05 µM
same,IC50,SIK2,0.105 µM
same,IC50,PKCmu/PRKD1,0.167 µM
same,IC50,c-MER,14.3 µM
same,IC50,mLK1/MAP3K9,0.148 µM
same,GI50,Ba/F3 FLT3-ITD,0.092 µM
same,IC50,FLT3,0.0103 µM
same,IC50,MV-4-11 cells,0.0659 µM
same,IC50,K-562 cell line,5.1 µM
same,GI50,Ba/F3 parental,1.79 µM
"CC(=O)N1CCN(c2ccc(OCC3COC(Cn4ccnc4)(c4ccc(Cl)cc4Cl)O3)cc2)CC1 (stereo not shown) [ketoconazole, reference compound]","inhibition at 20 min, 10 µM",CYP 3A4,98.7%
Cc1nc(Nc2cnn(C3CCNCC3)c2)nc2c1N(C)C(=O)c1cc3ccccc3cc1N2C [HTH-01-015],IC50,ARK5/NUAK1 [2],0.1 µM

# Source: patent publication US10683282B2, “Multi-substituted pyrimidine derivatives with excellent kinase inhibitory activities” (KOREA INSTITUTE OF SCIENCE AND TECHNOLOGY, priority 2018, dated 2020)
